# Measurements: US20260250290A1 (BRISTOL-MYERS SQUIBB COMPANY, priority 2023, published 2026)
# Target: T1, full length SGK1 (Homo sapiens, UniProt O00141)
# T1 construct: 125 μM full length SGK1 (Life Technologies Part #PR7358A); purchased Life Technologies PR7358A
# T1 sequence (O00141 1-431): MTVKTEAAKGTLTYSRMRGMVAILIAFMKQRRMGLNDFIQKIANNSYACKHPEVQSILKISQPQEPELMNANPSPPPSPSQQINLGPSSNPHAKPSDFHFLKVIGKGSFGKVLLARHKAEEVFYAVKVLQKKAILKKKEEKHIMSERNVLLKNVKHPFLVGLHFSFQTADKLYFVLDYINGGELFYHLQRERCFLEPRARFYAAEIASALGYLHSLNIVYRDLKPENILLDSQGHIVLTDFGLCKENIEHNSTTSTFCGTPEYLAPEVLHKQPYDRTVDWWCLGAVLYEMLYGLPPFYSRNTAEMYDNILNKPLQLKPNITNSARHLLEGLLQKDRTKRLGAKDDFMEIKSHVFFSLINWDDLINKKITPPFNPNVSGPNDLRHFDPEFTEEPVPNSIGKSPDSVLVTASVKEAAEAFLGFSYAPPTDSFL
# Test: SGK1 inhibition Assay A (Caliper LabChip electrophoretic separation of fluorescent peptide substrate and phosphorylated product)
# Format: biochemical
# Details: Assay A; 20 μM ATP, 40 min incubation; read-out: SGK1 IC50
row,Structure (SMILES),IC50 [nM]
1,"NCCOc1cc(C(F)F)sc1C(=O)N[C@@H]1CCCN(c2cc(-c3ccnc(C(F)F)c3)n3ncnc(N)c23)C1 [Example 326, (R)-N-(1-(4-amino-7-(2-(difluoromethyl)pyridin-4-yl)pyrrolo[2,1-f][1,2,4]triazin-5-yl)piperidin-3-yl)-3-(2-aminoethoxy)-5-(difluoromethyl)thiophene-2-carboxamide]",4
2,"NCCOc1cc(Cl)sc1C(=O)N[C@@H]1CCCN(c2cc(-c3cncnc3)n3ncnc(N)c23)C1 [Example 327, (R)—N-(1-(4-amino-7-(pyrimidin-5-yl)pyrrolo[2,1-f][1,2,4]triazin-5-yl)piperidin-3-yl)-3-(2-aminoethoxy)-5-chlorothiophene-2-carboxamide]",9
3,"CC(=O)N1CC=C(c2cc(N3CCC[C@@H](NC(=O)c4sc(Cl)cc4OC[C@H](C)N)C3)c3c(N)ncnn23)C1 [Example 330, N—((R)-1-(7-(1-acetyl-2,5-dihydro-1H-pyrrol-3-yl)-4-aminopyrrolo[2,1-f][1,2,4]triazin-5-yl)piperidin-3-yl)-3-((S)-2-aminopropoxy)-5-chlorothiophene-2-carboxamide]",3
4,"CC(=O)N1CC=C(c2cc(N3CCC[C@@H](NC(=O)c4sc(Cl)cc4OCC4(N)CC4)C3)c3c(N)ncnn23)C1 [Example 331, (R)—N-(1-(7-(1-acetyl-2,5-dihydro-1H-pyrrol-3-yl)-4-aminopyrrolo[2,1-f][1,2,4]triazin-5-yl)piperidin-3-yl)-3-((1-aminocyclopropyl)methoxy)-5-chlorothiophene-2-carboxamide]",21
5,"CC(=O)N(C)CCOc1cc(Cl)sc1C(=O)N[C@@H]1CCCN(c2cc(C3=CCN(C(C)=O)C3)n3ncnc(N)c23)C1 [Example 332, (R)—N-(1-(7-(1-acetyl-2,5-dihydro-1H-pyrrol-3-yl)-4-aminopyrrolo[2,1-f][1,2,4]triazin-5-yl)piperidin-3-yl)-5-chloro-3-(2-(N-methylacetamido)ethoxy)thiophene-2-carboxamide]",18
6,"CNCCOc1cc(Cl)sc1C(=O)N[C@@H]1CCCN(c2cc(C3=CCN(C(C)=O)C3)n3ncnc(N)c23)C1 [Example 332D, (R)—N-(1-(7-(1-acetyl-2,5-dihydro-1H-pyrrol-3-yl)-4-aminopyrrolo[2,1-f][1,2,4]triazin-5-yl)piperidin-3-yl)-5-chloro-3-(2-(methylamino)ethoxy)thiophene-2-carboxamide]",10
7,"COC(=O)N1CC=C(c2cc(N3CCC[C@@H](NC(=O)c4sc(C(F)F)cc4OCCN4CCN(C)CC4)C3)c3c(N)ncnn23)C1 [Example 334, Methyl (R)-3-(4-amino-5-(3-(5-(difluoromethyl)-3-(2-(4-methylpiperazin-1-yl)ethoxy)thiophene-2-carboxamido)piperidin-1-yl)pyrrolo[2,1-f][1,2,4]triazin-7-yl)-2,5-dihydro-1H-pyrrole-1-carboxylate]",9

# Further compounds by falling IC50, results first:
row,IC50 [nM],Structure (SMILES)
1,3,"CC(=O)NCCOc1cc(Cl)sc1C(=O)N[C@@H]1CCCN(c2cc(C3=CCN(C(C)=O)C3)n3ncnc(N)c23)C1 [Example 328, (R)-3-(2-acetamidoethoxy)-N-(1-(7-(1-acetyl-2,5-dihydro-1H-pyrrol-3-yl)-4-aminopyrrolo[2,1-f][1,2,4]triazin-5-yl)piperidin-3-yl)-5-chlorothiophene-2-carboxamide]"
2,3,"CC(=O)N1CC=C(c2cc(N3CCC[C@@H](NC(=O)c4sc(Cl)cc4OCCNC(=O)C(F)F)C3)c3c(N)ncnn23)C1 [Example 329, (R)—N-(1-(7-(1-acetyl-2,5-dihydro-1H-pyrrol-3-yl)-4-aminopyrrolo[2,1-f][1,2,4]triazin-5-yl)piperidin-3-yl)-5-chloro-3-(2-(2,2-difluoroacetamido)ethoxy)thiophene-2-carboxamide]"
3,1,COC(=O)N(C)CCOc1cc(Cl)sc1C(=O)N[C@@H]1CCCN(c2cc(C3=CCN(C(C)=O)C3)n3ncnc(N)c23)C1 [Example 333]
